Assay results published in US9376442B2, “Methylpyrrolopyrimidinecarboxamides” (Takeda GmbH, priority 2009, dated 2016).

Target: T1, PDE5A1 (Homo sapiens, UniProt O76074)
T1 construct: from tissue; host or cells: human platelets from fresh donor blood (10,000 x g supernatant of sonicated lysate)
Assay: Inhibition of type 5 phosphodiesterase (PDE5) activity, modified SPA test with human platelet lysate
Assay type: biochemical
Settings: 0.5 μM cGMP, read-out: PDE5A1 inhibitory values [measured as −log IC50 (mol/l)] (converted)
How it was run: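 Enzyme source is lysate from human platelets (10,000 g supernatant). Compound preincubated 5 min at 37° C in Tris pH 7.4 containing 1 μM motapizone and 10 nM of a PDE2 inhibitor. Reaction started with 0.5 μM cGMP ([3H] tracer) and run 15 min; SPA read-out, IC50 by non-linear regression.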

| SMILES | IC50 |
| --- | --- |
| COCC(=O)N1C[C@@H](O)[C@H](NC(=O)c2c(C)[nH]c3c(-c4ccc(OC)cc4OCC4CC4)ncnc23)C1 (relative stereo) [Example E65, 4-[2-(Cyclopropylmethoxy)-4-methoxyphenyl]-N-[(3R*,4R*)-4-hydroxy-1-(methoxyacetyl)pyrrolidin-3-yl]-6-methyl-5H-pyrrolo[3,2-d]pyrimidine-7-carboxamide] | < 1 nM |
| Cc1[nH]c2c(-c3cc(F)ccc3OCC3CC3)ncnc2c1C(=O)N[C@@H]1CCN(C(=O)CO)C[C@H]1O (relative stereo) [Example F30, 4-[2-(Cyclopropylmethoxy)-5-fluorophenyl]-N-[(3R*,4R*)-3-hydroxy-1-(hydroxyacetyl)piperidin-4-yl]-6-methyl-5H-pyrrolo[3,2-d]pyrimidine-7-carboxamide] | 1 to 10 nM |
| COc1cc(-c2nc(C)nc3c(C(=O)NC4CCN(C(=O)CO)CC4)c(C)[nH]c23)c(OCC2CC2)cc1F [Example F109, 4-[2-(Cyclopropylmethoxy)-4-fluoro-5-methoxyphenyl]-N-[1-(hydroxyacetyl)piperidin-4-yl]-2,6-dimethyl-5H-pyrrolo[3,2-d]pyrimidine-7-carboxamide] | < 1 nM |
| COc1ccc(OCC2CC2)c(-c2ncnc3c(C(=O)N[C@@H]4CCN(C(=O)[C@H](C)O)C4)c(C)[nH]c23)c1 [Example F48, 4-[2-(cyclopropylmethoxy)-5-methoxyphenyl]-N-{(3R)-1-[(2S)-2-hydroxypropanoyl]pyrrolidin-3-yl}-6-methyl-5H-pyrrolo[3,2-d]pyrimidine-7-carboxamide] | < 1 nM |
| CC(=O)N1CC[C@@H](NC(=O)c2c(C)[nH]c3c(-c4ccc(F)cc4OCC4CC4)ncnc23)C1 [Example E28, N-[(3R)-1-acetylpyrrolidin-3-yl]-4-[2-(cyclopropylmethoxy)-4-fluorophenyl]-6-methyl-5H-pyrrolo[3,2-d]pyrimidine-7-carboxamide] | 1 to 10 nM |
| CCC(=O)N1CC[C@@H](NC(=O)c2c(C)[nH]c3c(-c4cc(OC)ccc4OCC4CC4)ncnc23)C1 [Example E76, 4-[2-(Cyclopropylmethoxy)-5-methoxyphenyl]-6-methyl-N-[(3R)-1-propionylpyrrolidin-3-yl]-5H-pyrrolo[3,2-d]pyrimidine-7-carboxamide] | < 1 nM |
| CC(=O)N[C@H]1CC[C@@H](NC(=O)c2c(C)[nH]c3c(-c4c(OCC5CC5)ccc5c4OCO5)ncnc23)CC1 [Example E9, N-(cis-4-acetamidocyclohexyl)-4-[5-(cyclopropylmethoxy)-1,3-benzodioxol-4-yl]-6-methyl-5H-pyrrolo[3,2-d]pyrimidine-7-carboxamide] | < 1 nM |
| COCC(=O)N[C@H]1CC[C@H](NC(=O)c2c(C)[nH]c3c(-c4cc(OC)c(F)cc4OCC4CC4)ncnc23)CC1 [Example E108, 4-[2-(Cyclopropylmethoxy)-4-fluoro-5-methoxyphenyl]-N-{trans-4-[(methoxyacetyl)amino]cyclohexyl}-6-methyl-5H-pyrrolo[3,2-d]pyrimidine-7-carboxamide] | < 1 nM |
| Cc1[nH]c2c(-c3c(OCC4CC4)ccc4c3OCO4)ncnc2c1C(=O)N[C@H]1CC[C@@H](NC(=O)CO)CC1 [Example F5, 4-[5-(Cyclopropylmethoxy)-1,3-benzodioxol-4-yl]-N-[cis-4-(glycoloylamino)cyclohexyl]-6-methyl-5H-pyrrolo[3,2-d]pyrimidine-7-carboxamide] | < 1 nM |
| CCC(=O)N1CC[C@@H](NC(=O)c2c(C)[nH]c3c(-c4cc(F)c(OC)cc4OCC4CC4)ncnc23)[C@H](O)C1 (relative stereo) [Example E143, 4-[2-(Cyclopropylmethoxy)-5-fluoro-4-methoxyphenyl]-N-[(3R*,4R*)-3-hydroxy-1-propanoylpiperidin-4-yl]-6-methyl-5H-pyrrolo[3,2-d]pyrimidine-7-carboxamide] | < 1 nM |
| COc1cc(-c2nc(C)nc3c(C(=O)NC4CCN(C(C)=O)CC4)c(C)[nH]c23)c(OCC2CC2)cc1F [Example E173, N-(1-Acetylpiperidin-4-yl)-4-[2-(cyclopropylmethoxy)-4-fluoro-5-methoxyphenyl]-2,6-dimethyl-5H-pyrrolo[3,2-d]pyrimidine-7-carboxamide] | < 1 nM |
| COc1ccc(-c2ncnc3c(C(=O)N[C@H]4CC[C@H](NC(C)=O)CC4)c(C)[nH]c23)c(OCC2CC2)c1 [Example E58, N-(trans-4-acetamidocyclohexyl)-4-[2-(cyclopropylmethoxy)-4-methoxyphenyl]-6-methyl-5H-pyrrolo[3,2-d]pyrimidine-7-carboxamide] | < 1 nM |
| COc1ccc(-c2ncnc3c(C(=O)N[C@H]4CC[C@H](NC(=O)[C@H](C)O)CC4)c(C)[nH]c23)c(OCC2CC2)c1 [Example F36, 4-[2-(Cyclopropylmethoxy)-4-methoxyphenyl]-N-(trans-4-{[(2S)-2-hydroxypropanoyl]amino}cyclohexyl)-6-methyl-5H-pyrrolo[3,2-d]pyrimidine-7-carboxamide] | < 1 nM |
| COc1cc(-c2ncnc3c(C(=O)NC4CCN(C(=O)CO)CC4)c(C)[nH]c23)c(OCC2CC2)cc1F [Example F65, 4-[2-(Cyclopropylmethoxy)-4-fluoro-5-methoxyphenyl]-N-(1-glycoloylpiperidin-4-yl)-6-methyl-5H-pyrrolo[3,2-d]pyrimidine-7-carboxamide] | < 1 nM |
| CC(=O)N[C@H]1CC[C@H](NC(=O)c2c(C)[nH]c3c(-c4ccc(F)cc4OCC4CC4)ncnc23)CC1 [Example E22, N-(trans-4-acetamidocyclohexyl)-4-[2-(cyclopropylmethoxy)-4-fluorophenyl]-6-methyl-5H-pyrrolo[3,2-d]pyrimidine-7-carboxamide] | < 1 nM |
| CCC(=O)N1CCC(NC(=O)c2c(C)[nH]c3c(-c4cc(OC)c(F)cc4OCC4CC4)nc(C)nc23)CC1 [Example E174, 4-[2-(Cyclopropylmethoxy)-4-fluoro-5-methoxyphenyl]-2,6-dimethyl-N-(1-propanoylpiperidin-4-yl)-5H-pyrrolo[3,2-d]pyrimidine-7-carboxamide] | < 1 nM |
| COCC(=O)N[C@H]1CC[C@H](NC(=O)c2c(C)[nH]c3c(-c4cc(F)c(OC)cc4OCC4CC4)ncnc23)CC1 [Example E137, 4-[2-(Cyclopropylmethoxy)-5-fluoro-4-methoxyphenyl]-N-{trans-4-[(methoxyacetyl)amino]cyclohexyl}-6-methyl-5H-pyrrolo[3,2-d]pyrimidine-7-carboxamide] | < 1 nM |
| Cc1[nH]c2c(-c3c(OCC4CC4)ccc4c3OCO4)ncnc2c1C(=O)NC1CN(C(=O)C(C)O)CC1O (mixture of isomers) [Example F10, Diastereomeric mixture of 4-[5-(Cyclopropylmethoxy)-1,3-benzodioxol-4-yl]-N-{(3R,4R)-4-hydroxy-1-[(2S)-2-hydroxypropanoyl]pyrrolidin-3-yl}-6-methyl-5H-pyrrolo[3,2-d]pyrimidine-7-carboxamide and 4-[5-(cyclopropylmethoxy)-1,3-benzodioxol-4-yl]N-{(3S,4S)-4-hydroxy-1-[(2S)-2-hydroxypropanoyl]pyrrolidin-3-yl}-6-methyl-5H-pyrrolo[3,2-d]pyrimidine-7-carboxamide] | < 1 nM |
| CCC(=O)N1CC[C@@H](NC(=O)c2c(C)[nH]c3c(-c4cc(OC)c(F)cc4OCC4CC4)ncnc23)C1 [Example E180, 4-[2-(Cyclopropylmethoxy)-4-fluoro-5-methoxyphenyl]-6-methyl-N-[(3R)-1-propionylpyrrolidin-3-yl]-5H-pyrrolo[3,2-d]pyrimidine-7-carboxamide] | < 1 nM |
| Cc1cc(-c2ncnc3c(C(=O)N[C@H]4CC[C@@H](NC(=O)[C@H](C)O)CC4)c(C)[nH]c23)c(OCC2CC2)cc1F [Example F80, 4-[2-(Cyclopropylmethoxy)-4-fluoro-5-methylphenyl]-N-(cis-4-{[(2S)-2-hydroxypropanoyl]amino}cyclohexyl)-6-methyl-5H-pyrrolo[3,2-d]pyrimidine-7-carboxamide] | < 1 nM |
| COc1ccc(-c2ncnc3c(C(=O)NC4CCN(C(=O)[C@H](C)O)CC4)c(C)[nH]c23)c(OCC2CC2)c1 [Example F35, 4-[2-(Cyclopropylmethoxy)-4-methoxyphenyl]-N-{1-[(2S)-2-hydroxypropanoyl]piperidin-4-yl}-6-methyl-5H-pyrrolo[3,2-d]pyrimidine-7-carboxamide] | < 1 nM |
| CCC(=O)N1CC[C@H](O)[C@@H](NC(=O)c2c(C)[nH]c3c(-c4cc(OC)c(F)cc4OCC4CC4)ncnc23)C1 (relative stereo) [Example E117, 4-[2-(Cyclopropylmethoxy)-4-fluoro-5-methoxyphenyl]-N-[(3S*,4S*)-4-hydroxy-1-propionylpiperidin-3-yl]-6-methyl-5H-pyrrolo[3,2-d]pyrimidine-7-carboxamide] | < 1 nM |
| Cc1cc(-c2ncnc3c(C(=O)NC4CCN(C(=O)[C@H](C)O)CC4)c(C)[nH]c23)c(OCC2CC2)cc1F [Example F76, 4-[2-(Cyclopropylmethoxy)-4-fluoro-5-methylphenyl]-N-{1-[(2S)-2-hydroxypropanoyl]piperidin-4-yl}-6-methyl-5H-pyrrolo[3,2-d]pyrimidine-7-carboxamide] | < 1 nM |
| Cc1cc(-c2ncnc3c(C(=O)N[C@H]4CC[C@H](NC(=O)[C@H](C)O)CC4)c(C)[nH]c23)c(OCC2CC2)cc1F [Example F78, 4-[2-(Cyclopropylmethoxy)-4-fluoro-5-methylphenyl]-N-(trans-4-{[(2S)-2-hydroxypropanoyl]amino}cyclohexyl)-6-methyl-5H-pyrrolo[3,2-d]pyrimidine-7-carboxamide] | < 1 nM |
| CCC(=O)N[C@H]1CC[C@H](NC(=O)c2c(C)[nH]c3c(-c4cc(C)c(F)cc4OCC4CC4)ncnc23)CC1 [Example E123, 4-[2-(Cyclopropylmethoxy)-4-fluoro-5-methylphenyl]-6-methyl-N-[trans-4-(propanoylamino)cyclohexyl]-5H-pyrrolo[3,2-d]pyrimidine-7-carboxamide] | < 1 nM |
